We go through 16 molecules from patent publication US6872805B2 (Bristol-Myers Squibb Company, priority 2000, dated 2005).

Bounds are passed on as bounds.

HCV NS3/4A protease complex, sequence (P27958 1027-1711, stated change not applied): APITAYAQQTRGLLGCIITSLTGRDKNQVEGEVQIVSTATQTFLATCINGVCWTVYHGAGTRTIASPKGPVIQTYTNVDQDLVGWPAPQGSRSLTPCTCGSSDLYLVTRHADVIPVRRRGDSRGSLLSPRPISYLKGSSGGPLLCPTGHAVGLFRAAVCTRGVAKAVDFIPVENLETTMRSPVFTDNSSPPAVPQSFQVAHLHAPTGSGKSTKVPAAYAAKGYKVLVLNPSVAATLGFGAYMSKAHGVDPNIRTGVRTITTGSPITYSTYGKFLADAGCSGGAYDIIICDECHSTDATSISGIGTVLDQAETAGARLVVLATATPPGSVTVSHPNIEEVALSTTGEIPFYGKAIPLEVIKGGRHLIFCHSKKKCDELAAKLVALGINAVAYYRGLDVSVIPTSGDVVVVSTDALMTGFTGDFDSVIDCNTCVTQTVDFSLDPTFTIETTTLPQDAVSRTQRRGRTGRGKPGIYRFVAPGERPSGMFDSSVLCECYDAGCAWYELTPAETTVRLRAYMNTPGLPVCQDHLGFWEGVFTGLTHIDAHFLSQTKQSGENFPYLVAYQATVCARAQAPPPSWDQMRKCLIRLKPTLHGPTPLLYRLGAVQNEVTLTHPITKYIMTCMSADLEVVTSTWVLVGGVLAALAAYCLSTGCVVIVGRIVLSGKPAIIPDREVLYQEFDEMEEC
HCV NS3/4A protease complex, sequence (P27958 1027-1711, stated change not applied): as above

This experiment concerns the target HCV NS3/4A protease complex (Hepatitis C virus genotype 1a, UniProt P27958, C1454S/C1711G). The experiment can be described thus: Recombinant HCV NS3/4A protease complex FRET peptide assay (strain not stated). In kind it is biochemical. The settings on record: IC50, NS3/4A protease enzyme assay, strain not stated; activity ranges. The text has this: The purpose of this in vitro assay was to measure the inhibition of HCV NS3 protease complexes, derived from the BMS, H77C or J416S strains, as described below, by compounds of the present invention.
Serum from an HCV-infected patient was obtained from Dr. T. Wright, San Francisco Hospital. An engineered full-length cDNA template of the HCV genome (BMS strain) was constructed from DNA fragments obtained by reverse transcription-PCR (RT-PCR) of serum RNA and using primers selected on the basis of homology between other genotype 1a strains. […] The infectious clones, H77C (1a genotype) and J4L6S (1b genotype) were obtained from R. Purcell (NIH) and the sequences are published in genebank (AAB67036, see Yanagi, M., Purcell, R. H., Emerson, S. U. and Bukh, J. Proc. Natl. Acad. Sci. U.S.A. 94(16),8738-8743 (1997); AF054247, see Yanagi, M., St Claire, M., Shapiro, M., Emerson, S. U., Purcell, R. H. and Bukh, J, Virology 244 (1), 161-172. (1998)).
The BMS, H77C and J4L6S strains were used for production of recombinant NS3/4A protease complexes. DNA encoding the recombinant HCV NS3/4A protease complex (amino acid 1027 to 1711) for these strains were manipulated as described by P. Gallinari et al. (see Gallinari P, Paolini C, Brennan D, Nardi C, Steinkuhler C, De Francesco R. Biochemistry. 38(17):5620-32, (1999)). Briefly, a three-lysine solubilizing tail was added at the 3′-end of the NS4A coding region. The cysteine in the P1 position of the NS4A-NS4B cleavage site (amino acid 1711) was changed to a glycine to avoid the proteolytic cleavage of the lysine tag. Furthermore, a cysteine to serine mutation was introduced by PCR at amino acid position 1454 to prevent the autolytic cleavage in the NS3 helicase domain. The variant DNA fragment was cloned in the pET21b bacterial expression vector and the NS3/4A complex was expressed in E. coli BL21 (DE3) following the protocol described by P. Gallinari et al. (see Gallinari P, Brennan D, Nardi C, Brunetti M, Tomei L, Steinkuhler C, De Francesco R., J Virol. 72(8):6758-69 (1998)) with modifications. Briefly, NS3/4A expression was induced with 0.5 mM IPTG for 22 hr at 20° C. […] The cells were resuspended in lysis buffer (10 mL/g) consisting of 25 mM HEPES, pH 7.5, 20% glycerol, 500 mM NaCl, 0.5% Triton-X100, 1 ug/ml lysozyme, 5 mM MgCl2, 1 ug/ml DNaseI 5 mM β-Mercaptoethanol (βME), Protease inhibitor—EDTA free, homogenized and incubated for 20 mins at 4° C. The homogenate was sonicated and clarified by ultra-centrifugation at 235000 g for 1 hr at 4° C. Imidazole was added to the supernatant to a final concentration of 15 mM and the pH adjusted to 8.0. The crude protein extract was loaded on a Ni-NTA column pre-equilibrated with buffer B (25 mM HEPES, pH 8.0, 20% glycerol, 500 mM NaCl, 0.5% Triton-X100, 15 mM imidazole, 5 mM βME). The sample was loaded at a flow rate of 1 mL/min. The column was washed with 15 column volumes of buffer C (same as buffer B except with 0.2% Triton-X100). The protein was eluted with 5 column volumes of 200 mM Imidazole in buffer.
NS3/4A protease complex-containing fractions were pooled and loaded on a desalting column Superdex-S200 pre-equilibrated with buffer D (25 mM HEPES, pH 7.5, 20% glycerol, 300 mM NaCl, 0.2% Triton-X100, 10 mM βME). Sample was loaded at a flow rate of 1 mL/min. NS3/4A protease complex-containing fractions were pooled and concentrated to approximately 0.5 mg/ml.
As to `CCC1C[C@]1(NC(=O)[C@@H]1C[C@@H](Oc2cc(-c3ccccc3)nc3cc(OC)ccc23)CN1C(=O)[C@@H](NC(=O)OC(C)(C)C)C(C)C)C(=O)NS(C)(=O)=O` (stereo partly shown) [Compound 1], the IC50 was less than 500 nM.

In the case of `C=CC1C[C@]1(NC(=O)[C@@H]1C[C@@H](Oc2cc(-c3ccccc3)nc3cc(OC)ccc23)CN1C(=O)[C@@H](NC(=O)OC(C)(C)C)C(C)(C)C)C(=O)N[S+]([O-])C(C)(C)C` (stereo partly shown) [Compound 62], the IC50 was less than 5000 nM.

For `C=CC1C[C@]1(NC(=O)[C@@H]1C[C@@H](Oc2cc(-c3ccccc3)nc3cc(OC)ccc23)CN1C(=O)C(NC(=O)OC(C)(C)C)C(C)(C)C)C(=O)NS(=O)(=O)c1c(C(C)C)cc(C(C)C)cc1C(C)C` (stereo partly shown) [Compound 64], the IC50 is less than 5000 nM.

As for `C=CC1C[C@]1(NC(=O)[C@@H]1C[C@@H](Oc2cc(-c3ccccc3)nc3cc(OC)ccc23)CN1C(=O)[C@@H](NC(=O)OC(C)(C)C)C(C)(C)C)C(=O)NS(=O)(=O)c1ccc(-c2ccccc2)cc1` (stereo partly shown) [Compound 65], the IC50 is less than 500 nM.

Turning to `C=CC1C[C@]1(NC(=O)[C@@H]1C[C@@H](Oc2cc(-c3ccccc3)nc3cc(OC)ccc23)CN1C(=O)[C@@H](NC(=O)OC(C)(C)C)C(C)(C)C)C(=O)NS(=O)(=O)c1ccc(OC(F)(F)F)cc1` (stereo partly shown) [Compound 66], the IC50 is less than 500 nM.

For the molecule `CCC1CC1(NC(=O)[C@@H]1C[C@@H](Oc2cc(-c3ccccc3)nc3cc(OC)ccc23)CN1C(=O)[C@H](CC1CCCCC1)NC(=O)OC(C)(C)C)C(=O)NS(C)(=O)=O` (stereo partly shown) [Compound 74], the IC50 was less than 5000 nM.

Turning to `CCC1CC1(NC(=O)[C@@H]1C[C@@H](Oc2cc(-c3ccccc3)nc3cc(OC)ccc23)CN1C(=O)[C@H](CC1CCCCC1)NC(=O)OC(C)(C)C)C(=O)NS(C)(=O)=O` (stereo partly shown) [Compound 75], the IC50 is less than 500 nM.

Turning to `C=CC1CC1(NC(=O)[C@@H]1C[C@@H](Oc2cc(-c3ccccc3)nc3cc(OC)ccc23)CN1C(=O)[C@H](CC1CCCCC1)NC(=O)OC(C)(C)C)C(=O)NS(C)(=O)=O` (stereo partly shown) [Compound 76], the IC50 was less than 500 nM.

`CCC1CC1(NC(=O)[C@@H]1C[C@@H](Oc2cc(-c3ccccc3)nc3cc(OC)ccc23)CN1C(=O)[C@H](CC1CCCCC1)NC(=O)OC(C)(C)C)C(=O)NS(=O)(=O)C1CC1` (stereo partly shown) [Compound 77]: the IC50 was less than 50000 nM.

With `CCC1CC1(NC(=O)[C@@H]1C[C@@H](Oc2cc(-c3ccccc3)nc3cc(OC)ccc23)CN1C(=O)[C@H](CC1CCCCC1)NC(=O)OC(C)(C)C)C(=O)NS(=O)(=O)C1CC1` (stereo partly shown) [Compound 78], the IC50 was less than 50 nM.

In the case of `C=CC1CC1(NC(=O)[C@@H]1C[C@@H](Oc2cc(-c3ccccc3)nc3cc(OC)ccc23)CN1C(=O)[C@H](CC1CCCCC1)NC(=O)OC(C)(C)C)C(=O)NS(=O)(=O)C1CC1` (stereo partly shown) [Compound 79], the IC50 is less than 500 nM.

With `CCC1CC1(NC(=O)[C@@H]1C[C@@H](Oc2cc(-c3ccccc3)nc3cc(OC)ccc23)CN1C(=O)[C@H](CC1CCCCC1)NC(=O)OC(C)(C)C)C(=O)NS(=O)(=O)C(F)(F)F` (stereo partly shown) [Compound 80], the IC50 is less than 5000 nM.

Take `C=CC1CC1(NC(=O)[C@@H]1C[C@@H](Oc2cc(-c3ccccc3)nc3cc(OC)ccc23)CN1C(=O)[C@H](CC1CCCCC1)NC(=O)OC(C)(C)C)C(=O)NS(=O)(=O)C(F)(F)F` (stereo partly shown) [Compound 81]: the IC50 was less than 5000 nM.

In the case of `C=CC1CC1(NC(=O)[C@@H]1C[C@@H](Oc2cc(-c3ccccc3)nc3cc(OC)ccc23)CN1C(=O)[C@H](CC1CCCCC1)NC(=O)OC(C)(C)C)C(=O)NS(=O)(=O)C(F)(F)F` (stereo partly shown) [Compound 82], the IC50 is less than 50000 nM.

Turning to `C=CC1CC1(NC(=O)[C@@H]1C[C@@H](Oc2cc(-c3ccccc3)nc3cc(OC)ccc23)CN1C(=O)[C@H](CC(C)C)NC(=O)OC(C)(C)C)C(=O)NS(=O)(=O)C(F)(F)F` (stereo partly shown) [Compound 84], the concentration for half-maximal inhibition (IC50) is less than 5000 nM.

For the molecule `C=CC1CC1(NC(=O)[C@@H]1C[C@@H](Oc2cc(-c3ccccc3)nc3cc(OC)ccc23)CN1C(=O)[C@@H](NC(=O)OC(C)(C)C)C(C)C)C(=O)NS(=O)(=O)C(F)(F)F` (stereo partly shown) [Compound 85], the IC50 was less than 500 nM.
